US20130303509A1, “NAMPT INHIBITORS” (AbbVie Inc., priority 2012, published 2013)

Each compound was assayed on PC3 cells (assay: NAMPT Cell Proliferation Assay). Conditions: Homo sapiens, PC-3, 120 h, 5 days incubation, cell viability by Cell Titer Glo.
Assay type: cell-based
Method in brief: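 Seeded at 500 cells/well in RPMI with 10% heat-inactivated FBS and left to attach overnight at 37° C, 5% CO2. Compounds were added as 10-fold dilutions […] for 5 days, then viability was read by CellTiter-Glo. IC50s came from sigmoidal fits of percent inhibition.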

Structure (SMILES) | IC50
Cc1cccc(C(=O)N2CCC(c3ccc(NC(=O)[C@H]4CCN(c5cccnn5)C4)cc3)CC2)c1C [Example 728, (3S)-N-{4-[1-(2,3-dimethylbenzoyl)piperidin-4-yl]phenyl}-1-(pyridazin-3-yl)pyrrolidine-3-carboxamide] | 6.97 nM
CC(C)c1ccc(C(=O)N2CCC(c3ccc(NC(=O)[C@H]4CCN(c5cccnn5)C4)cc3)CC2)cc1 [Example 729, (3S)-N-(4-{1-[4-(propan-2-yl)benzoyl]piperidin-4-yl}phenyl)-1-(pyridazin-3-yl)pyrrolidine-3-carboxamide] | 13.5 nM
O=C(Nc1ccc(C2CCN(C(=O)C3CCCCC3)CC2)cc1)[C@H]1CCN(c2cccnn2)C1 [Example 730, (3S)-N-{4-[1-(cyclohexylcarbonyl)piperidin-4-yl]phenyl}-1-(pyridazin-3-yl)pyrrolidine-3-carboxamide] | 6.81 nM
O=C(Nc1ccc(C2CCN(C(=O)c3cccs3)CC2)cc1)[C@H]1CCN(c2cccnn2)C1 [Example 731, (3S)-1-(pyridazin-3-yl)-N-{4-[1-(thiophen-2-ylcarbonyl)piperidin-4-yl]phenyl}pyrrolidine-3-carboxamide] | 0.5 nM
O=C(Nc1ccc(C2CCN(C(=O)c3ccc(O)cc3)CC2)cc1)[C@H]1CCN(c2cccnn2)C1 [Example 732, (3S)-N-{4-[1-(4-hydroxybenzoyl)piperidin-4-yl]phenyl}-1-(pyridazin-3-yl)pyrrolidine-3-carboxamide] | 29.9 nM
N#Cc1cccc(C(=O)N2CCC(c3ccc(NC(=O)[C@H]4CCN(c5cccnn5)C4)cc3)CC2)c1 [Example 733, (3S)-N-{4-[1-(3-cyanobenzoyl)piperidin-4-yl]phenyl}-1-(pyridazin-3-yl)pyrrolidine-3-carboxamide] | 37.5 nM
O=C(Nc1ccc(C2CCN(C(=O)CC(F)(F)F)CC2)cc1)[C@H]1CCN(c2cccnn2)C1 [Example 734, (3S)-1-(pyridazin-3-yl)-N-{4-[1-(3,3,3-trifluoropropanoyl)piperidin-4-yl]phenyl}pyrrolidine-3-carboxamide] | 8.33 nM
COCC(=O)N1CCC(c2ccc(NC(=O)[C@H]3CCN(c4cccnn4)C3)cc2)CC1 [Example 735, (3S)-N-{4-[1-(methoxyacetyl)piperidin-4-yl]phenyl}-1-(pyridazin-3-yl)pyrrolidine-3-carboxamide] | 68.9 nM
CC(C)CC(=O)N1CCC(c2ccc(NC(=O)[C@H]3CCN(c4cccnn4)C3)cc2)CC1 [Example 736, (3S)-N-{4-[1-(3-methylbutanoyl)piperidin-4-yl]phenyl}-1-(pyridazin-3-yl)pyrrolidine-3-carboxamide] | 8.09 nM
N#Cc1ncccc1N1CC(C(=O)Nc2ccc(C3CCN(C(=O)c4ccccc4)CC3)cc2)C1 [Example 737, N-[4-(1-benzoylpiperidin-4-yl)phenyl]-1-(2-cyanopyridin-3-yl)azetidine-3-carboxamide] | 1860 nM
N#Cc1ccncc1N1CC(C(=O)Nc2ccc(C3CCN(C(=O)c4ccccc4)CC3)cc2)C1 [Example 738, N-[4-(1-benzoylpiperidin-4-yl)phenyl]-1-(4-cyanopyridin-3-yl)azetidine-3-carboxamide] | 854 nM
Cc1cc(F)ncc1N1CC(C(=O)Nc2ccc(C3CCN(C(=O)c4ccccc4)CC3)cc2)C1 [Example 739, N-[4-(1-benzoylpiperidin-4-yl)phenyl]-1-(6-fluoro-4-methylpyridin-3-yl)azetidine-3-carboxamide] | 7310 nM
N#Cc1cncc(N2CC(C(=O)Nc3ccc(C4CCN(C(=O)c5ccccc5)CC4)cc3)C2)c1 [Example 740, N-[4-(1-benzoylpiperidin-4-yl)phenyl]-1-(5-cyanopyridin-3-yl)azetidine-3-carboxamide] | 914 nM
Cc1cncc(N2CC(C(=O)Nc3ccc(C4CCN(C(=O)c5ccccc5)CC4)cc3)C2)c1 [Example 741, N-[4-(1-benzoylpiperidin-4-yl)phenyl]-1-(5-methylpyridin-3-yl)azetidine-3-carboxamide] | 181 nM
CC(C)Cn1cc(-c2ncc(C(=O)N[C@H]3CCN(c4cccnn4)C3)s2)cn1 [Example 742, 2-[1-(2-methylpropyl)-1H-pyrazol-4-yl]-N-[(3S)-1-(pyridazin-3-yl)pyrrolidin-3-yl]-1,3-thiazole-5-carboxamide] | 734 nM
Cc1ncccc1N1CC[C@H](C(=O)Nc2ccc(C3CCN(C(=O)c4ccccc4)CC3)cc2)C1 [Example 743, (3S)—N-[4-(1-benzoylpiperidin-4-yl)phenyl]-1-(2-methylpyridin-3-yl)pyrrolidine-3-carboxamide] | 6620 nM
Cc1ncccc1N1CC[C@H](C(=O)Nc2ccc(C3CCN(C(=O)c4ccccc4F)CC3)cc2)C1 [Example 744, (3S)—N-{4-[1-(2-fluorobenzoyl)piperidin-4-yl]phenyl}-1-(2-methylpyridin-3-yl)pyrrolidine-3-carboxamide] | 2720 nM
Cc1ncccc1N1CC[C@H](C(=O)Nc2ccc(C3CCN(C(=O)CCC(F)(F)F)CC3)cc2)C1 [Example 745, (3S)-1-(2-methylpyridin-3-yl)-N-{4-[1-(4,4,4-trifluorobutanoyl)piperidin-4-yl]phenyl}pyrrolidine-3-carboxamide] | > 10000 nM

Structure (SMILES) | IC50
CC(C)Cn1cc(-c2ccc(C(=O)N[C@H]3CCN(c4ccc(Cl)nn4)C3)o2)cn1 [Example 746, N-[(3S)-1-(6-chloropyridazin-3-yl)pyrrolidin-3-yl]-5-[1-(2-methylpropyl)-1H-pyrazol-4-yl]furan-2-carboxamide] | > 10000 nM
CC(C)Cn1cc(-c2ccc(C(=O)N[C@H]3CCN(c4cccnn4)C3)o2)cn1 [Example 747, 5-[1-(2-methylpropyl)-1H-pyrazol-4-yl]-N-[(3S)-1-(pyridazin-3-yl)pyrrolidin-3-yl]furan-2-carboxamide] | 5920 nM
CC1(Cn2cc(-c3ccc(NC(=O)C4CN(c5cccnn5)C4)cc3)cn2)CCOCC1 [Example 748, N-(4-{1-[(4-methyltetrahydro-2H-pyran-4-yl)methyl]-1H-pyrazol-4-yl}phenyl)-1-(pyridazin-3-yl)azetidine-3-carboxamide] | 2.58 nM
CC(C)C(=O)N1CCC(c2ccc(C(=O)N[C@H]3CCN(c4ccc(Cl)nn4)C3)cc2)CC1 [Example 749, N-[(3S)-1-(6-chloropyridazin-3-yl)pyrrolidin-3-yl]-4-[1-(2-methylpropanoyl)piperidin-4-yl]benzamide] | > 10000 nM
O=C(Nc1ccc(-c2cnn(CCN3CCNCC3)c2)cc1)C1CN(c2cccnn2)C1 [Example 750, N-(4-{1-[2-(piperazin-1-yl)ethyl]-1H-pyrazol-4-yl}phenyl)-1-(pyridazin-3-yl)azetidine-3-carboxamide] | 226 nM
CC(C)(C)Cn1cc(-c2ccc(NC(=O)C3CN(c4cccnn4)C3)cc2)cn1 [Example 751, N-{4-[1-(2,2-dimethylpropyl)-1H-pyrazol-4-yl]phenyl}-1-(pyridazin-3-yl)azetidine-3-carboxamide] | 2.71 nM
CC(C)C(=O)N1CCC(c2ccc(C(=O)N[C@H]3CCN(c4cccnn4)C3)cc2)CC1 [Example 752, 4-[1-(2-methylpropanoyl)piperidin-4-yl]-N-[(3S)-1-(pyridazin-3-yl)pyrrolidin-3-yl]benzamide] | 2450 nM
CC(C)(O)Cn1cc(-c2ccc(NC(=O)C3CN(c4cccnn4)C3)cc2)cn1 [Example 753, N-{4-[1-(2-hydroxy-2-methylpropyl)-1H-pyrazol-4-yl]phenyl}-1-(pyridazin-3-yl)azetidine-3-carboxamide] | 8.92 nM
O=C(N[C@H]1CCN(c2cccnn2)C1)c1ccc(C2CCN(C(=O)c3cccc(F)c3)CC2)s1 [Example 754, 5-[1-(3-fluorobenzoyl)piperidin-4-yl]-N-[(3S)-1-(pyridazin-3-yl)pyrrolidin-3-yl]thiophene-2-carboxamide] | 94.8 nM
O=C(N[C@H]1CCN(c2cccnn2)C1)c1ccc(C2CCN(C(=O)c3ccc(F)cc3)CC2)s1 [Example 755, 5-[1-(4-fluorobenzoyl)piperidin-4-yl]-N-[(3S)-1-(pyridazin-3-yl)pyrrolidin-3-yl]thiophene-2-carboxamide] | 190 nM
CC1(Cn2cc(-c3ccc(NC(=O)[C@H]4CCN(c5cccnn5)C4)cc3)cn2)CCOCC1 [Example 756, (3S)—N-(4-{1-[(4-methyltetrahydro-2H-pyran-4-yl)methyl]-1H-pyrazol-4-yl}phenyl)-1-(pyridazin-3-yl)pyrrolidine-3-carboxamide] | 9.08 nM
CC(C)(O)Cn1cc(-c2ccc(NC(=O)[C@H]3CCN(c4cccnn4)C3)cc2)cn1 [Example 757, (3S)-N-{4-[1-(2-hydroxy-2-methylpropyl)-1H-pyrazol-4-yl]phenyl}-1-(pyridazin-3-yl)pyrrolidine-3-carboxamide] | 67.7 nM
O=C(N[C@H]1CCN(c2cccnn2)C1)c1ccc(C2CCN(C(=O)C3CCOCC3)CC2)s1 [Example 758, N-[(3S)-1-(pyridazin-3-yl)pyrrolidin-3-yl]-5-[1-(tetrahydro-2H-pyran-4-ylcarbonyl)piperidin-4-yl]thiophene-2-carboxamide] | 857 nM
CC(C)(C)Cn1cc(-c2ccc(NC(=O)[C@H]3CCN(c4cccnn4)C3)cc2)cn1 [Example 759, (3S)-N-{4-[1-(2,2-dimethylpropyl)-1H-pyrazol-4-yl]phenyl}-1-(pyridazin-3-yl)pyrrolidine-3-carboxamide] | 6.2 nM
CC(C)C(=O)N1CCC(c2ccc(C(=O)N[C@H]3CCN(c4cccnn4)C3)s2)CC1 [Example 760, 5-[1-(2-methylpropanoyl)piperidin-4-yl]-N-[(3S)-1-(pyridazin-3-yl)pyrrolidin-3-yl]thiophene-2-carboxamide] | 253 nM
O=C(N[C@H]1CCN(c2cccnn2)C1)c1ccc(C2CCN(C(=O)c3ccc(F)cc3F)CC2)s1 [Example 761, 5-[1-(2,4-difluorobenzoyl)piperidin-4-yl]-N-[(3S)-1-(pyridazin-3-yl)pyrrolidin-3-yl]thiophene-2-carboxamide] | 92.3 nM
CC1CC1C(=O)N1CCC(c2ccc(C(=O)N[C@H]3CCN(c4cccnn4)C3)s2)CC1 (stereo partly drawn) [Example 762, 5-{1-[(2-methylcyclopropyl)carbonyl]piperidin-4-yl}-N-[(3S)-1-(pyridazin-3-yl)pyrrolidin-3-yl]thiophene-2-carboxamide] | 709 nM
